In PMC12136037, “Type II kinase inhibitors that target Parkinson’s disease–associated LRRK2” (Science Advances, 2025):
Several values for one entry are separate records, joined by “and”; a condition that tells them apart may be missing. Equal entries are not always repeated.

What was measured:
LRRK2^RCKW = molecular target: T1, LRRK2^RCKW (Homo sapiens, UniProt Q5S007); assay: Biochemical LRRK2 activity assay (PhosphoSense, AssayQuant SOX peptide AQT0615); conditions: for normalized response (LRRK2 activity): normalized to 0% (no kinase) and 100% (no inhibitor) control, two singlicate columns per compound
T1 construct: LRRK2 R1327 to E2527; His6-Z-tag (TEV cleavable) (N, cleaved yes); host or cells: Sf9 insect cells (baculovirus)
T1 sequence (Q5S007 1327-2527): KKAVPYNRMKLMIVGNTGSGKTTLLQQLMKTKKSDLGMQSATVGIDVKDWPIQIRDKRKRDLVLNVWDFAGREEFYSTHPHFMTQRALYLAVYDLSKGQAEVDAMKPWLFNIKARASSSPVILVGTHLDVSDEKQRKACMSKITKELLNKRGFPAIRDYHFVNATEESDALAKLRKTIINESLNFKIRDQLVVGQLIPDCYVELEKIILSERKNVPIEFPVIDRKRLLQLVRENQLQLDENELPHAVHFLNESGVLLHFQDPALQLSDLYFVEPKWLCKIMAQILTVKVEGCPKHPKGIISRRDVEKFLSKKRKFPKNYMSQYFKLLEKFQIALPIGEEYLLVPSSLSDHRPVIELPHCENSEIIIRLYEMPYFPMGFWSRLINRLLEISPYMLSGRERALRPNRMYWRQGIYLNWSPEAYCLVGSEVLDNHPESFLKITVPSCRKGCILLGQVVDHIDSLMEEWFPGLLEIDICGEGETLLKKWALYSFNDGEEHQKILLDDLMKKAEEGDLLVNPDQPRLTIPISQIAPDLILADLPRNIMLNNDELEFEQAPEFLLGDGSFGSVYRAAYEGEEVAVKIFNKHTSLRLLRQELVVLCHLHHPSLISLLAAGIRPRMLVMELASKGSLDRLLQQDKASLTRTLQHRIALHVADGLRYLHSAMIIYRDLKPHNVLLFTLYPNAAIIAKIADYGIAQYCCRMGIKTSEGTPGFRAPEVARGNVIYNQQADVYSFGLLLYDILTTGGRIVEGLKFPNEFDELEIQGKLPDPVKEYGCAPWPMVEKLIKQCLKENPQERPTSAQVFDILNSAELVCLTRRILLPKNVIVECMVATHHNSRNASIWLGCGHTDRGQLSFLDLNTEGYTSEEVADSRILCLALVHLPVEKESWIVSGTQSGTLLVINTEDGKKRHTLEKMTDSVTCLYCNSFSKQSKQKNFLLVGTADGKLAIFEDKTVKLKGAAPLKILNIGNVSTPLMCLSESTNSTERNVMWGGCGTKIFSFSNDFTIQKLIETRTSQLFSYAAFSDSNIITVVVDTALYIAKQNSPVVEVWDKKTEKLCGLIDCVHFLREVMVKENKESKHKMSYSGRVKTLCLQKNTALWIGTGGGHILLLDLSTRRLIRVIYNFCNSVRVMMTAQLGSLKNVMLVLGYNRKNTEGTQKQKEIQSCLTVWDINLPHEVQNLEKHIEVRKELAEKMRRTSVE
Procedure: Two wells per compound were used as 0% (without protein and compound) and 100% (without compound) control. […] The 0% control wells were filled with 10 μl of pure reaction buffer. With the ECHO, 5 nl of 100 mM ATP was pipetted into each well, the plates were centrifuged at 1500g for 2 min, and the reaction was incubated at room temperature for 4 hours. The fluorescence of the SOX-peptide after 360-nm excitation was measured at 487-nm emission with a PHERAstar plate reader (BMG Labtech). The IC50 values were calculated from a nonlinear regression of the log[inhibitor] versus the normalized response with GraphPad Prism 8 (www.graphpad.com/, RRID:SCR_002798).

LRRK2^KW = molecular target: T2, LRRK2^KW (Homo sapiens, UniProt Q5S007); assay: DSF thermal stabilization of LRRK2^KW; format: binding; conditions: DSF, LRRK2^KW, 10 μM inhibitor
T2 construct: LRRK2 R1847 to E2527; His6-Z-tag (TEV cleavable) (N, cleaved yes); host or cells: Sf9 insect cells (baculovirus)
T2 sequence (Q5S007 1847-2527): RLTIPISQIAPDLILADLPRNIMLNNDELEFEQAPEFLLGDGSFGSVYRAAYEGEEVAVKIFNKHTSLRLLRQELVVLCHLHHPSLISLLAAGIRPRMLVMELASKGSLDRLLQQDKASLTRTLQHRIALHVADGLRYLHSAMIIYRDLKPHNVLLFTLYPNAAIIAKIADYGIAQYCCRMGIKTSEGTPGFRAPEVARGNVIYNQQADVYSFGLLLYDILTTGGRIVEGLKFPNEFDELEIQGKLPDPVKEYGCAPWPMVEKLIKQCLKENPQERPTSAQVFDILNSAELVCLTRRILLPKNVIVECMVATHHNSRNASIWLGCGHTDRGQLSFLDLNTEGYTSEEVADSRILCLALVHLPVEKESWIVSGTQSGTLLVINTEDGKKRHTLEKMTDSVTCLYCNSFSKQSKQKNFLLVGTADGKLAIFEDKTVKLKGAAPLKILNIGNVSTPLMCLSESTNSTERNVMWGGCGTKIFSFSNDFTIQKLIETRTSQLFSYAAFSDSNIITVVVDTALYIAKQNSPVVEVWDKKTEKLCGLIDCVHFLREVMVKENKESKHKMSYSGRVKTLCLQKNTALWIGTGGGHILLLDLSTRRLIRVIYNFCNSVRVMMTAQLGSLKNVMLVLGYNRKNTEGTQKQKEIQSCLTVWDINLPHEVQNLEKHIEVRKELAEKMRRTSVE
Procedure: To characterize binding between small molecules and LRRK2^KW, induced thermal stabilization was measured by DSF according to previously established protocols ([47]). In brief, LRRK2^KW was diluted to 4 μM in 20 mM Hepes (pH 7.4), 150 mM NaCl, 0.5 mM TCEP, 0.5% glycerol, 20 μM GDP, and 2.5 mM MgCl2, and SYPRO Orange was added (1:1000, MilliporeSigma). Inhibitor (10 μM) to be tested was added to a final sample volume of 20 μl per well of a 96-well plate (white, Starlab). […] The fluorescence was plotted against the temperature, and the melting point (Tm) was determined as the minimum of the first derivative relative to the control.

[1] = LRRK2^RCKW kinase activity, in vitro

Compound	IC50 (LRRK2^RCKW; [1]) [µM]	normalized response (LRRK2 activity) (LRRK2^RCKW; log[inhibitor(mol)] -5.12494)	normalized response (LRRK2 activity) (LRRK2^RCKW; log[inhibitor(mol)] -5.60206)	normalized response (LRRK2 activity) (LRRK2^RCKW; log[inhibitor(mol)] -6.30103)	normalized response (LRRK2 activity) (LRRK2^RCKW; log[inhibitor(mol)] -6.90309)	normalized response (LRRK2 activity) (LRRK2^RCKW; log[inhibitor(mol)] -7.30103)	normalized response (LRRK2 activity) (LRRK2^RCKW; log[inhibitor(mol)] -7.60206)	normalized response (LRRK2 activity) (LRRK2^RCKW; log[inhibitor(mol)] -8.09691)	normalized response (LRRK2 activity) (LRRK2^RCKW; log[inhibitor(mol)] -8.61979)	normalized response (LRRK2 activity) (LRRK2^RCKW; log[inhibitor(mol)] -9.09691)	normalized response (LRRK2 activity) (LRRK2^RCKW; log[inhibitor(mol)] -9.39794)	∆Tm (K) (LRRK2^KW)	normalized response (LRRK2 activity) (LRRK2^RCKW; log[inhibitor(mol)] -4.82391)	IC50 (LRRK2^RCKW; Table S2, bound printed in μM under head IC50 [nM]) [µM]
CN1CCc2cc(NC(=O)C3(C(=O)Nc4cccc(-c5c[nH]c6ncnc(N7CCOCC7)c56)c4)CC3)ccc2C1 [Compound 10]	3.18 ± 0.134	28.5996% and 28.8703%	54.9087% and 59.3757%	85.68% and 83.1467%	102.663% and 58.1284%	103.229% and 99.9077%	100.894% and 96.1562%	96.775% and 100.111%	99.9803% and 105.134%	138.579% and 106.168%	136.224% and 108.416%	4.3		
COc1cc(S(C)(=O)=O)ccc1Nc1nc(N(C)C)c2c(-c3cccc(NC(=O)Nc4cc(C(C)(C)C)nn4-c4ccc(C)cc4)c3)c[nH]c2n1 [Compound 33]						124.559% and 124.399%	116.776% and 118.915%	103.198% and 104.843%	103.872% and 98.2729%	102.243% and 101.201%	101.448% and 104.602%	1.0		
COc1cc(C(=O)N2CCOCC2)c(F)cc1Nc1nc(N(C)C)c2c(-c3cccc(NC(=O)Nc4cc(C(C)(C)C)nn4-c4ccc(C)cc4)c3)c[nH]c2n1 [Compound 34]	2.82 ± 1.7	30.8718% and 33.6962%	50.116% and 50.3008%	30.7392% and 30.2826%	79.3769% and 75.1697%	94.0291% and 93.4725%	99.2059% and 99.0146%	90.4133% and 94.0334%	94.5074% and 96.3707%	98.4515% and 93.6442%	99.1494% and 99.7973%	0.0	44.1151% and 42.1018%	
COc1cc(S(C)(=O)=O)ccc1Nc1nc(N(C)C)c2c(-c3cccc(NC(=O)Nc4cc(C(C)(C)C)nn4-c4ccc5ncccc5c4)c3)c[nH]c2n1 [Compound 35]					115.444% and 117.007%	105.55% and 105.293%	108.325% and 105.046%	100.105% and 95.8379%	94.7466% and 91.6315%	101.92% and 85.7909%	98.761% and 96.3918%	1.5		
O=C(Nc1ccc(F)cc1)C1(C(=O)Nc2cccc(-c3ccc4n[nH]cc4c3)c2)CC1 [Compound 47]		99.0859% and 93.2217%	93.6133% and 98.8538%	94.4738% and 97.6114%	97.3406% and 97.6501%	98.4526% and 101.585%	103.828% and 100.546%	94.8702% and 94.0339%	91.8535% and 95.7453%	97.0119% and 90.234%	103.089% and 99.1004%	3.0	115.049% and 93.8598%	> 15
Cn1cc(-c2c[nH]c3ncnc(N4CCOCC4)c23)cc1C#N [PF-360, reference compound]		-13.9757% and -14.0596%	-14.9079% and -13.9094%	-16.2775% and -13.8122%	-15.2172% and -15.9196%	-14.8814% and -10.0789%		-1.676% and 1.585%	61.433% and 54.956%	90.2569% and 81.7741%	97.0785% and 81.4958%	14.0 ± 0.7	-6.35% and -14.8637%	
